In patent US10947252B2, “Inhibitors of KEAP1-Nrf2 protein-protein interaction” (Janssen Pharmaceutica NV, priority 2018, dated 2021):

Experiments:
[1] = system: Glo-Response ARE-luc2P HEK293 cell line; experiment: ARE luciferase reporter cell-based assay; settings: average of results obtained;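 note: luciferase signal tracks Nrf2 activation of the ARE once compounds disrupt KEAP1-Nrf2 binding, read with One-Glo reagent, DMSO serving as low control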
Protocol: The ARE assay utilizes a luciferase reporter cell line where the signal is proportional to NrF2 activation of the ARE. The cell line is commercially available from Promega and was prepared by stably transfecting HEK293 cells with a vector (pGL4.11) which contains the ARE response element upstream of a minimal promoter. The promoter drives expression of luc2 firefly luciferase gene. Upon disruption of KEAP1-Nrf2 binding by compound, Nrf2 translocates into the nucleus where it binds to the ARE and activates transcription of luciferase.
The materials used in this ARE assay are as follows: Glo-Response ARE-luc2P HEK293 cell line and One-Glo Luciferase Assay System were purchased from Promega (Madison, Wis.). Dulbecco's Modified Eagle medium ((DMEM), low glucose, GlutaMAX, pyruvate), fetal bovine serum (certified, heat inactivated), hygromycin B, Dulbecco's phosphate-buffered saline were purchased from Life Technologies (Grand Island, N.Y.). Penicillin, streptomycin solution (100×) and 0.05% trypsin-EDTA were purchased from Corning (Manassas, Va.). DMSO was purchased from EMD Millipore.
The ARE assay protocol is as follows: cells were maintained in growth medium (DMEM+10% FBS, 200 μg/mL hygromycin B, p-s) between 20-90% confluency by splitting twice per week. One day before the assay, cells were trypsinized, counted to determine viable cell count, and re-suspended in assay medium (DMEM+10% FBS, p-s) at 250,000 cells/mL. […] 100% DMSO was used as the low control. A 11-point dose series of the control compound was included on every plate. Compounds were spotted to an intermediate plate (Greiner #781280 V-bottom 384 well plate) using the Echo acoustic dispenser (Labscyte San Jose, Calif.). Spot size was 240 nL.
On the day of the assay, 60 mL per well of assay medium was added to the pre-spotted plate to make 2× compound stocks using the Combi (Thermo Waltham, Mass.). Compound and medium were mixed on the Janus and 20 mL of 2×compound stock was added to the cell plate which already contained 20 mL of assay medium from cell plating. […] The plates were returned to the tissue culture incubator for 24 hours.
The next day, luciferase activity was measured according to the manufacturer's protocol for One-Glo luciferase reagent. The plates were removed from the incubator and allowed to equilibrate to room temperature for 30 min. Forty microliters of One-Glo reagent (equilibrated to room temperature) was added per well using the Combi. The plates were mixed on an orbital shaker for 3 min. Luminescence was read on the BMG Pherastar multiplate reader (Cary, N.C.) using the luminescence protocol (1 sec interval).
The dose-response data were analyzed in Genedata Screener using 4PL nonlinear regression model. Raw luminescence counts as well as normalized values were used for data analysis.

[2] = target: Kelch domain of human KEAP1 (321-624 aa) (Homo sapiens (Human), UniProt Q14145); experiment: KEAP1 KELCH ThermoFluor binding assay; settings: KEAP Kelch […], 1,8-ANS, pH 7.0, average of results obtained, read-out: Tf Kd;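 note: Ligand-induced melting temperature shift of E. coli-expressed KEAP1 Kelch protein, Kd estimated from concentration-response curves of ΔTm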
Sequence of Kelch domain of human KEAP1 (321-624 aa) (Q14145 321-624): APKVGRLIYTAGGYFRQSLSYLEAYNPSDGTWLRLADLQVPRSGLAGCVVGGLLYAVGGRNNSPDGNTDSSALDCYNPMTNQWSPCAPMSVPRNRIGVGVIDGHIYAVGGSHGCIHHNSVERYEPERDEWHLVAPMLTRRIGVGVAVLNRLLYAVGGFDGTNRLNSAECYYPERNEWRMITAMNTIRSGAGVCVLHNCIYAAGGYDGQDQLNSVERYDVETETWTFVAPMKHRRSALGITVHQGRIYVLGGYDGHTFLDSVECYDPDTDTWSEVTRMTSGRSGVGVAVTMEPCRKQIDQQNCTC
Description: The shift in the melting point described as a ΔTm is proportional to the concentration and affinity of the ligand. The compound potency may be compared as a rank order of either ΔTm values at a single compound concentration or in terms of KD values, estimated from concentration response curves.
The protein was expressed in E. coli with 6His tag that was cleaved prior to receipt for use.
Protein (KEAP Kelch) and compound solutions were dispensed into black 384-well polypropylene PCR microplates (Abgene) and overlayed with silicone oil (1 μL, Fluka, type DC 200) to prevent evaporation.

Row | SMILES | Kd [2] [nM] | EC50 ([1]; Homo sapiens, HEK293, 24 h) [nM] | EC50 ([1]; 24 hours) [nM]
1 | Cc1ccc([C@H](CC(=O)O)c2ccc3c(nnn3CC3CC3)c2C)cc1CN1CC2(COC2)Oc2ncccc2S1(=O)=O (single isomer, unassigned) [Example 69, (*S)-3-(1-(Cyclopropylmethyl)-4-methyl-1H-benzo[d][1,2,3]triazol-5-yl)-3-(3-((1′,1′-dioxidospiro[oxetane-3,4′-pyrido[2,3-b][1,4,5]oxathiazepin-2′(3′H)-yl)methyl)-4-methylphenyl)propanoic Acid] | 0.16 | 28.5 | –
2 | Cc1ccc([C@@H](CC(=O)O)c2ccc3c(nnn3CC3CC3)c2C)cc1CN1CC2(COC2)Oc2ncccc2S1(=O)=O (single isomer, unassigned) [Example 70, (*R)-3-(1-(Cyclopropylmethyl)-4-methyl-1H-benzo[d][1,2,3]triazol-5-yl)-3-(3-((1′,1′-dioxidospiro[oxetane-3,4′-pyrido[2,3-b][1,4,5]oxathiazepin-2′(3′H)-yl)methyl)-4-methylphenyl)propanoic Acid] | 1.9 | 180 | –
3 | Cc1ccc([C@H](CC(=O)O)c2ccc3c(nnn3C)c2C(F)F)cc1CN1CC2CCCN2c2ncccc2S1(=O)=O (single isomer, unassigned) [Example 72, (*S)-3-(4-(Difluoromethyl-1-methyl-1H-benzo[d][1,2,3]triazol-5-yl)-3-(3-(((R-5,5-dioxido-7a,8,9,10-tetrahydropyridi[2,3-f]pyrrolo[2,1-d][1,2,5]thiadiazepin-6(7H)-yl)methyl)-4-methylphenyl)propanoic Acid] | 5.4 | – | 1970
4 | Cc1ccc([C@H](CC(=O)O)c2ccc3c(nnn3C)c2C(F)F)cc1CN1CC2CCCN2c2ncccc2S1(=O)=O (single isomer, unassigned) [Example 73, (*R) 3-(4-(Difluoromethyl-1-methyl-1H-benzo[d][1,2,3]triazol-5-yl)-3-(3-(((R-5,5-dioxido-7a,8,9,10-tetrahydropyridi[2,3-f]pyrrolo[2,1-d][1,2,5]thiadiazepin-6(7H)-yl)methyl)-4-methylphenyl)propanoic Acid] | 3 | – | 600
5 | Cc1ccc([C@@H](CC(=O)O)c2ccc3c(nnn3CC3CC3)c2C)cc1CN1CC2(COC2)Oc2ccccc2S1(=O)=O (single isomer, unassigned) [Example 76, (*R)-3-(1-(cyclopropylmethyl)-4-methyl-1H-benzo[d][1,2,3]triazol-5-yl)-3-(3-((1′,1′-dioxidospiro[benzo[b][1,4,5]oxathiazepin-4,3′-oxetan]-2,(3H)-yl)methyl)-4-methylphenyl)propanoic Acid] | 4.8 | 136 | –
6 | Cc1ccc([C@H](CC(=O)O)c2ccc3c(nnn3CC3CC3)c2C)cc1CN1CC2(COC2)Oc2ccccc2S1(=O)=O (single isomer, unassigned) [Example 77, (*S)-3-(1-(Cyclopropylmethyl)-4-methyl-1H-benzo[d][1,2,3]triazol-5-yl)-3-(3-((1′,1′-dioxidospiro[benzo[b][1,4,5]oxathiazepin-4,3′-oxetan]-2,(3H)-yl)methyl)-4-methylphenyl)propanoic Acid] | 0.42 | 15.7 | –
7 | Cc1ccc([C@@H](CC(=O)O)c2ccc3c(nnn3CC3CC3)c2C)cc1CN1CC2(CC2)N(C)c2ncccc2S1(=O)=O (single isomer, unassigned) [Example 79, (*R)-3-(1-(Cyclopropylmethyl)-4-methyl-1H-benzo[d][1,2,3]triazol-5-yl)-3-(4-methyl-3-((5′-methyl-1′,1′-dioxido-5′H-spiro[cyclopropane-1,4′-pyrido[2,3-f][1,2,5]thiadiazepin]-2′(3′H)-yl)methyl)phenyl)propanoic Acid] | 5.6 | 153 | –
8 | Cc1ccc([C@H](CC(=O)O)c2ccn3c(C(F)(F)F)nnc3c2C)cc1CN1CC2(COC2)Oc2ccc(F)cc2S1(=O)=O (single isomer, unassigned) [Example 99, (*S)-3-(3-((8-Fluoro-1,1-dioxidospiro[benzo[b][1,4,5]oxathiazepine-4,3′-oxetan]-2(3H)-yl)methyl]-4-methylphenyl)-3-(8-methyl-3-(trifluoromethyl)-[1,2,4]triazolo[4,3-a]pyridin-7-yl)propanoic Acid] | < 1 | 5.8 | –

The next lines start with results.

Row | Kd [2] [nM] | SMILES | EC50 ([1]; Homo sapiens, HEK293, 24 h) [nM] | EC50 ([1]; 24 hours) [nM]
9 | 5.5 | Cc1ccc([C@@H](CC(=O)O)c2ccc3c(nnn3CC3CC3)c2C)cc1CN1C[C@@]2(C)CCCN2c2ncccc2S1(=O)=O (single isomer, unassigned) [Example 81, (*R)-3-(1-(Cyclopropylmethyl)-4-methyl-1H-benzo[d][1,2,3]triazol-5-yl)-3-(4-methyl-3-(((*R)-7a-methyl-5,5-dioxido-7a,8,9,10-tetrahydropyrido[2,3-f]pyrrolo[2,1-d][1,2,5]thiadiazepin-6(7H)-yl)methyl)phenyl)propanoic Acid] | 176 | –
10 | 80 | Cc1ccc([C@H](CC(=O)O)c2ccc3c(nnn3CC3CC3)c2C)cc1CN1C[C@@]2(C)CCCN2c2ncccc2S1(=O)=O (single isomer, unassigned) [Example 82, (*S)-3-(1-(Cyclopropylmethyl)-4-methyl-1H-benzo[d][1,2,3]triazol-5-yl)-3-(4-methyl-3-(((*R)-7a-methyl-5,5-dioxido-7a,8,9,10-tetrahydropyrido[2,3-f]pyrrolo[2,1-d][1,2,5]thiadiazepin-6(7H)-yl)methyl)phenyl)propanoic Acid] | 3350 | –
11 | < 1 | Cc1c([C@@H](CC(=O)O)c2ccc(Cl)c(CN3CC4CCCCN4c4ncccc4S3(=O)=O)c2)ccn2c(C(F)(F)F)nnc12 (single isomer, unassigned) [Example 84, (*S)-3-(4-Chloro-3-(((*S)-5,5-dioxido-7,7a,8,9,10,11-hexahydro-6H-dipyrido[2,1-d:2′,3′-][1,2,5]thiadiazepin-6-yl)methyl)phenyl)-3-(8-methyl-3-(trifluoromethyl)-[1,2,4]triazolo[4,3-a]pyridine-7-yl)propanoic Acid] | 80.5 | –
12 | 2.2 | Cc1c([C@H](CC(=O)O)c2ccc(Cl)c(CN3CC4CCCCN4c4ncccc4S3(=O)=O)c2)ccn2c(C(F)(F)F)nnc12 (single isomer, unassigned) [Example 85, (*R)-3-(4-Chloro-3-(((*S)-5,5-dioxido-7,7a,8,9,10,11-hexahydro-6H-dipyrido[2,1-d:2′,3′-f][1,2,5]thiadiazepin-6-yl)methyl)phenyl)-3-(8-methyl-3-(trifluoromethyl)-[1,2,4]triazolo[4,3-a]pyridine-7-yl)propanoic Acid] | 1510 | –
13 | 1.3 | Cc1c([C@H](CC(=O)O)c2ccc(Cl)c(CN3CC4(COC4)Oc4ncccc4S3(=O)=O)c2)ccn2c(C(F)(F)F)nnc12 (single isomer, unassigned) [Example 87, (*R)-3-(4-Chloro-3-((1′,1′-dioxoidospiro[oxetane-3,4′-pyrido[2,3-b][1,4,5]oxathiazepin]-2′(3′H)-yl)methyl)phenyl)-3-(8-methyl-3-(trifluoromethyl)-[1,2,4]triazolo[4,3-a]pyridine-7-yl)propanoic Acid] | 2530 | –
14 | 0.01 | Cc1c([C@@H](CC(=O)O)c2ccc(Cl)c(CN3CC4(COC4)Oc4ncccc4S3(=O)=O)c2)ccn2c(C(F)(F)F)nnc12 (single isomer, unassigned) [Example 88, (*S)-3-(4-Chloro-3-((1′,1′-dioxoidospiro[oxetane-3,4′-pyrido[2,3-b][1,4,5]oxathiazepin]-2′(3′H)-yl)methyl)phenyl)-3-(8-methyl-3-(trifluoromethyl)-[1,2,4]triazolo[4,3-a]pyridine-7-yl)propanoic Acid] | > 20000 | –
15 | < 1 | Cc1cnc2c(c1)S(=O)(=O)N(Cc1cc([C@H](CC(=O)O)c3ccn4c(C(F)(F)F)nnc4c3C)ccc1Cl)CC1CCCCN21 (single isomer, unassigned) [Example 91, (*S)-3-(4-Chloro-3-(((*S)-3-methyl-5,5-dioxido-7,7a,8,9,10,11-hexahydro-6H-dipyrido[2,1-d:2′,3′-f][1,2,5]thiadiazepin-6-yl)methyl)phenyl)-3-(8-methyl-3-(trifluoromethyl)-[1,2,4]triazolo[4,3-a]pyridine-7-yl)propanoic Acid] | 14.4 | –
16 | < 1 | Cc1c([C@H](CC(=O)O)c2ccc(Cl)c(CN3CC4CCCCN4c4ncc(F)cc4S3(=O)=O)c2)ccn2c(C(F)(F)F)nnc12 (single isomer, unassigned) [Example 93, (*R)-3-(4-Chloro-3-(((*S)-3-fluoro-5,5-dioxido-7,7a,8,9,10,11-hexahydro-6H-dipyrido[2,1-d:2′,3′-f][1,2,5]thiadiazepin-6-yl)methyl)phenyl)-3-(8-methyl-3-(trifluoromethyl)-[1,2,4]triazolo[4,3-a]pyridine-7-yl)propanoic Acid] | 10 | –
17 | < 1 | Cc1c([C@@H](CC(=O)O)c2ccc(Cl)c(CN3CC4CCCCN4c4ncc(F)cc4S3(=O)=O)c2)ccn2c(C(F)(F)F)nnc12 (single isomer, unassigned) [Example 94, (*S)-3-(4-Chloro-3-(((*S)-3-fluoro-5,5-dioxido-7,7a,8,9,10,11-hexahydro-6H-dipyrido[2,1-d:2′,3′-f][1,2,5]thiadiazepin-6-yl)methyl)phenyl)-3-(8-methyl-3-(trifluoromethyl)-[1,2,4]triazolo[4,3-a]pyridine-7-yl)propanoic Acid] | 54.2 | –
18 | < 1 | Cc1ccc([C@H](CC(=O)O)c2ccn3c(C(F)(F)F)nnc3c2C)cc1CN1CC2(CC2)Oc2nc(NCCO)ccc2S1(=O)=O (single isomer, unassigned) [Example 101, (*S)-3-(3-((7′-((2-Hydroxyethyl)amino-1′,1′-dioxidospiro[cyclopropane-1.4′-pyrido[2,3-b][1,4,5]oxathiazepin]-2′(3′H)-yl)methyl)-4-methylphenyl)-3-(8-methyl-3-(trifluoromethyl)-[1,2,4]triazolo[4,3-a]pyridinn-7-yl)propanoic Acid] | 577 | –
19 | < 1 | Cc1ccc([C@H](CC(=O)O)c2ccn3c(C(F)(F)F)nnc3c2C)cc1CN1CC2(CC2)Oc2nc(NCCCO)ccc2S1(=O)=O (single isomer, unassigned) [Example 102] | 696 | –
